Source: patent US20250325508A1, “MODULATORS OF PROTEASOME DYNAMICS AND/OR FUNCTION, COMPOSITIONS, METHODS, AND THERAPEUTIC USES THEREOF” (TECHNION RESEARCH & DEVELOPMENT FOUNDATION LIMITED, priority 2022, published 2025)

Assays:
Format in all cases: cell-based, human
proteasome [1] = experiment: Mass spectrometric analysis of proteasome sub-complexes' composition (assembly); settings: starvation plus substance
Description: Analysis of proteasome assembly and sub-complex composition was performed using the MCP20 antibody against the α6 proteasome subunit, as previously described using the MCP21 antibody against α2 [B. Fabre et al., Mol. Cell. Proteomics 12, 687-699 (2013)]. Briefly, following the indicated treatments, cell lysates were immunoprecipitated using the α6 antibody, and the precipitates were subjected to proteomic mass spectrometry. Intensities of the different proteasomal subunits were normalized according to the median of intensities measured for all 20S subunits. Ratios were calculated for each condition relative to untreated cells (control). The color scale represents Log 2 fold-change.

26S proteasome = experiment: Proteasome subcellular localization in cultured cells (immunofluorescence, cell fractionation/Western blot)
Description: Cells were incubated for 20 min in fractionation buffer [20 mM HEPES pH 7.3, 10 mM KCl, 5 mM ATP, 5 mM MgCl2, and protease inhibitor cocktail (Roche)], followed by the addition of Digitonin (0.01%). They were then mixed thoroughly and centrifuged at 1,000×g for 5 min. The supernatant was collected as cytosolic fraction, and the pellet was washed with fractionation buffer supplemented with NP-40 (0.05%) and centrifuged, and the pellet (nuclei) was resuspended in fractionation buffer supplemented with sodium deoxycholate (0.5%), followed by its sonication.
Cells were washed twice with ice cold PBS and scraped into lysis buffer (50 mM Tris-HCl, pH 7.4, 130 mM NaCl, 0.5% NP-40) supplemented with freshly added protease inhibitor cocktail, 5 mM ATP, 10 mM iodoacetamide, and 5 mM N-ethyl maleimide. Protein concentration was measured by the BCA assay according to the manufacturer's instructions (Pierce, Rockford, IL). 30 μg of cellular protein were resolved via SDS-PAGE, transferred to a nitrocellulose membrane and immunoblotted with the appropriate antibody.
Cells were seeded on glass cover slips for 36 h. Following the indicated treatments, they were fixed with 4% PFA for 15 min, washed with phosphate-buffered saline (PBS) and incubated in PBS containing 10% goat serum for 1 h at room temperature, followed by 2 h incubation with the indicated primary antibody. Following extensive wash with PBS, the fixed cells were incubated with the relevant secondary antibody for 1 h, washed and mounted. Images were acquired using Zeiss LSM 700 confocal microscope (Zeiss, Oberkochen, Germany). […]

proteasome [2] = experiment: Live imaging of proteasome activity probe Me4BodipyFL-Ahx3Leu3VS; settings: addition to the starvation medium, HeLa cells
Description: Live cell proteasome activity was followed as previously described [C. R. Berkers et al., Mol Pharm 4, 739-748 (2007)]. In brief, Me4BodipyFL-Ahx3Leu3VS was added to the medium to a final concentration of 1 μM. Following incubation for 15 min, the cells were visualized by a Zeiss LSM 700 confocal microscope. In vitro proteasome activity assay was carried out as previously described [O. Braten et al., Proc. Natl. Acad. Sci. 113, E4639-47 (2016)]. In brief, cellular fractions were incubated at 37° C. for 30 min with 5 μM Suc-LLVY-AMC (Succinyl-Leu-Leu-Val-Tyr-amido-4-methylcoumarin) in a reaction buffer (40 mM Tris-HCl pH 7.2, 2 mM DTT, 5 mM MgCl2, 10 mM creatine phosphate, 0.1 mg/ml creatine phosphate kinase, 5 mM ATP). Reactions were stopped by adding 1% SDS, and fluorescence was measured at 360/460 nm (ex/em).

HeLa cells = experiment: Amino acids level measurement (LC-MS)
Description: Metabolic analysis was carried out as previously described [G. M. MacKay et al., 1st Ed. (Elsevier Inc., 2015)]. Briefly, cells were rapidly washed 3 times with ice-cold PBS and extracted with an aqueous solution of 50% Methanol, and 30% Acetonitrile. Samples were centrifuged at 16,000×g for 10 min at 4° C., and the supernatants were analyzed using HPLC-MS (Q-Exactive Orbitrap Mass Spectrometer (Thermo Scientific) coupled to Thermo Scientific UltiMate 3000 HPLC system). The HPLC setup consisted of a ZIC-PHILIC column (SeQuant, 150×2.1 mm, 5 μm, Merck) with a ZIC-PHILIC guard column (SeQuant, 20×2.1 mm). The aqueous mobile phase solvent was 20 mM ammonium carbonate adjusted to pH 9.4 with 0.1% ammonium hydroxide. The organic mobile phase was acetonitrile. Amino acids and other metabolites were separated over a 15 min linear gradient from 80% organic to 80% aqueous. The column temperature was 45° C., the flow rate 200 μl/min, and the run time 27 min. All metabolites were detected across a mass range of 75-1,000 m/z using the Q-Exactive mass spectrometer at a resolution of 35,000 (at 200 m/z) with electrospray ionization and polarity switching mode. Mass accuracy obtained for all metabolites was below 5 ppm. Data were acquired with Thermo Xcalibur software. The peak areas of different amino acids were determined using Thermo TraceFinder software through which metabolites were identified by the exact mass of the singly charged ion and the known retention time on the HPLC column. Commercially available standard compounds had been analyzed before to determine ion masses and retention times on the ZIC-PHILIC column. Protein quantitation based on the Lowry method was performed for normalization. The figure presents mean+/−SD of three replicates.

In the case of CCC(=C/[C@H](C)C/C=C/C(C)=C/[C@@H](C)C(=O)[C@@H](C)[C@H](O)[C@@H](C)C/C(C)=C/C(=O)O)/C=C/[C@@H]1OC(=O)C=C[C@@H]1C [Leptomycin B], the “effect of stress on proteasome assembly (20S and 19S sub-complexes)” value (proteasome [1]) is reported as “did not reverse the effect of stress on proteasome assembly”, the “proteasome translocation from the nucleus to the cytosol” value (26S proteasome; amino acid starvation, substance added to starvation medium) is reported as “inhibition of the translocation” and the proteasome localization (26S proteasome; non-stressed / well-fed cells, complete medium) is reported as “nuclear accumulation of the proteasome”. For the same compound, the “localization of proteasomal activity (nucleus vs cytosol)” value (proteasome [2]) was “preventing the shift in its dominance from the nucleus to the cytosol”, the “gain in amino acids produced by Torin1” value (HeLa cells; Torin1 plus LMB) was “significantly inhibited the gain in amino acids produced by Torin1” and the “level of Glu” value (HeLa cells; addition of LMB to Torin1-treated cells) was “unaffected”.
